{
  "source": "patent US11213495B2",
  "about": "“Method and composition for decreasing the psychotomimetic side effect and addictive disorder of ketamine” (NATIONAL HEALTH RESEARCH INSTITUTES, priority 2016, dated 2022)",
  "assay_type_in_all_cases": "in vivo",
  "key": {"Male ICR mice [1]": {"tested_on": "Male ICR mice", "experiment": "Novel location recognition test (NLRT)", "settings": "DMG 100 mg/kg pretreatment, ketamine 30 mg/kg; 30 min after sample phase", "protocol": "(§1) The novel location recognition test (NLRT) and novel object recognition test (NORT) were examined in a Plexiglas open field box (35×35×30 cm) located in a sound-attenuated room and illuminated with a 20-W light bulb. The novel location and novel object recognition procedure consisted of habituation, training, and retention sessions. Habituation was conducted in two consecutive daily sessions, during which each mouse was allowed to individually explore the box in the absence of objects for 20 min. The animal is then removed from the arena and placed in its home cage. During the sample phase, each animal was placed in the box, and after 5 min, two identical sample objects (A+A) were simultaneously introduced in two corners. Each animal was allowed to explore the objects for 5 min. An animal was considered to explore the object when its head was facing the object at a distance of approximately 1 cm or less between the head and object or when it was touching or sniffing the object. The time spent exploring each object was recorded using stopwatches by an experimenter blind to the treatment condition.\nAfter the sample phase, the mice were immediately returned to their home cages. […] The animals were allowed to explore the box freely for 5 min, and the time spent exploring each object was recorded as described above. […]"}, "Male Sprague-Dawley rats": {"tested_on": "Male Sprague-Dawley rats", "experiment": "Ketamine intravenous self-administration (IVSA) under progressive ratio (PR) schedule", "protocol": "The dose-dependent effects of betaine and its metabolite DMG on ketamine addiction were evaluated by the intravenous self-administration (IVSA) paradigm under a progressive ratio (PR) schedule. Animals were implanted indwelling catheters flushing of ketamine (0.5 mg/kg/per infusion), termed the training dose, under a FR1 schedule during daily 3-h sessions. After acquisition of stable responding for ketamine (criterion of less than 20% deviation from the mean of the total number of reinforcers earned in three consecutive sessions for each rat), the ketamine reinforcement schedule was changed to FR2 and maintained until responding stabilized at least for 3 days. Then, the PR schedule was conducted. The lever presses required to gain an infusion was determined by: 5×e^(infusion number×0.2)−5 (i.e., 1, 2, 4, 6, 9, […], 15, 20, 25, 32, etc). […] The dose-dependent effects of betaine of self-administration of various doses of ketamine ([…]) were assessed by pretreatment 30 min prior to their daily operant session using a within-subject Latin square design."}, "Male ICR mice [2]": {"tested_on": "Male ICR mice", "experiment": "Novel object recognition test (NORT)", "settings": "DMG 100 mg/kg pretreatment, ketamine 30 mg/kg; 24 h after sample phase", "protocol": "as §1\nAfter the sample phase, the mice were immediately returned to their home cages. The novel location recognition test was conducted 30 min after the training session. The animals were returned to the same box as during the sample phase, and one of the two objects was replaced with a novel local corner (A+A′) to test the location-based recognition memory. After 24 hours, novel object recognition test was performed. The mice are allowed to explore the open field with one identical sample object and a novel object to assess the novel object recognition memory (A+B). The animals were allowed to explore the box freely for 5 min, and the time spent exploring each object was recorded as described above. The objects and chambers were cleaned with 70% ethanol after each use. A preference index, a ratio of the amount of time spent exploring the original object or the novel location/object over the total time spent exploring both objects, was used to evaluate recognition memory. […]"}, "Male ICR mice [3]": {"tested_on": "Male ICR mice", "experiment": "Rotarod test (motor coordination)", "settings": "DMG 30 and 100 mg/kg prior to ketamine 30 mg/kg", "protocol": "Motor coordination was examined using an automated rotarod device (Singa; Technology Co., Ltd, Taiwan) for a maximum of 6 mice. A computer recorded the latency to fall in seconds. During two-three days training period, the mice were first trained on the rotarod at a constant speed of 20 rotations per minute (rpm) until all of the mice were able to spend at least 3 min on the road. The test drug (0, 30 and 100 mg/kg) was administered 30 min prior to the ketamine (30 mg/kg) or saline injection. Then, the mice were tested 10, 15, 20, 25, and 30 min after ketamine injection."}, "Male ICR mice [4]": {"tested_on": "Male ICR mice", "experiment": "Loss of righting reflex (LORR)", "settings": "DMG 100 and 300 mg/kg 30 min prior to ketamine 100 mg/kg", "protocol": "The test drug betaine (0, 300, and 600 mg/kg) or DMG (0, 100 and 300 mg/kg) was administered 30 min prior to the anesthetic doses of ketamine (100 mg/kg). Then, the mice were placed in a clean cage until the righting reflex was lost. They were then placed in the supine position until recovery and the onset and duration of the loss of righting reflex was recorded. Recovery of the righting reflex was defined as the ability to perform three successive rightings."}, "Male ICR mice [5]": {"tested_on": "Male ICR mice", "experiment": "Open field test / locomotor activity", "settings": "DMG 30 and 100 mg/kg pretreatment 30 min prior to ketamine 30 mg/kg", "protocol": "To evaluate the effect of DMG on ketamine-induced locomotor hyperactivity, the animals were moved from the home cage, weighed and placed into an activity cage (Columbus Auto-Track System, Version 3.0 A, Columbus Institute, Columbus, Ohio, USA) for 2 hours. Thereafter, the test drug (0, 30, and 100 mg/kg) was given 30 min prior to ketamine (30 mg/kg) or saline. The distance (cm) traveled was recorded for totally 180 min. A 70% alcohol solution was used to clean the inner surface of all the testing apparatus between trials to remove any potentially interfering odors left by the previous mouse."}, "Male ICR mice [6]": {"tested_on": "Male ICR mice", "experiment": "Forced swim test (FST): duration of immobility, struggling and swimming", "settings": "DMG 30 mg/kg pretreatment prior to ketamine 10 mg/kg", "protocol": "FST was conducted for two consecutive days. Mice were placed in a Plexiglas cylinder (33.5 cm height, 20 cm diameter) filled with 25±2° C. water to a height of 18-20 cm. For the first exposure, mice were placed in the water for 15 min (pre-test session) followed by […]. Twenty-four hours later (day 1 test session), various doses of test drug (at 0, 30 and 100 mg/kg) was administered 30 min prior to the ketamine (10 mg/kg) or saline. Then, the mice were tested 30 min after ketamine injection which placed in the water again for a 6 min session (test session), the first 2 minutes has elapsed. Immobility was assigned when no additional activity was observed other than that required to keep the head above the water.\nThis experiment included a control group and various doses of ketamine (3, 10, 15 mg/kg), betaine (10, 20, 30 mg/kg) and betaine (10, 20, 30 mg/kg) pretreatment prior to ketamine (fixed dose at 10 mg/kg). […] There was no significant effect of test session or interaction."}, "Male ICR mice [7]": {"tested_on": "Male ICR mice", "experiment": "Prepulse inhibition test (PPI) of acoustic startle", "settings": "DMG 100 mg/kg pretreatment, ketamine 30 mg/kg; p<0.001", "protocol": "The PPI was operated as described in our previous work (Chan et al., 2012a). Briefly, the animals were initially moved from the home cage, weighed, and then placed into the restrainers in the SR-LAB (San Diego Instruments, San Diego, Calif., USA) acoustic startle chambers for 30-min habituation. The test drug (0, 30 and 100 mg/kg) was administered 30 min prior to ketamine (30 mg/kg) or saline injection. After administration of ketamine or saline, the experiment started with a 5-min adaptation period during which the animals were exposed to 67-dB background white noise, and this background noise was continued throughout the session. Then, the following adaptation period startle session began with five initial startle stimuli (120 dB bursts of white noise, 40 ms duration). After the first five initial stimuli, mice received five different trial types: pulse alone trials (120 dB bursts of white noise, 40 ms duration), three prepulse and pulse trials in which 76, 81, or 86 dB white noise bursts (9, 14, and 19 dB above background) of 20 ms duration preceded 120 dB pulse by 100 ms prepulse onset to pulse onset, and no-stimuli trials during which only background noise was applied. Each of these trial types was presented five times in randomized order. The inter trial interval was 7-23 s, and the test lasted 15 min in total. Prepulse inhibition was calculated as the percent inhibition of the startle amplitude evoked by the pulse alone: % PPI=(magnitude on pulse alone trial−magnitude on prepulse+pulse trial/magnitude on pulse alone trial)×100."}, "Male ICR mice [8]": {"tested_on": "Male ICR mice", "experiment": "Forced swim test (FST): duration of immobility, struggling and swimming"}},
  "data": [
    {"compound": "CN(C)CC(=O)O", "note": "[DMG, N,N-dimethylglycine]", "values": [
      {"measurement": "ketamine-induced recognition memory impairment in NLRT", "setting": "Male ICR mice [1]", "result": "significantly attenuated"},
      {"measurement": "reduction of cumulative responses by ketamine", "setting": "Male Sprague-Dawley rats; DMG 100 mg/kg pretreatment, ketamine 0.3 mg/kg/infusion, PR schedule", "result": 40, "unit": "%"},
      {"measurement": "ketamine self-administration under PR schedule", "setting": "Male Sprague-Dawley rats; DMG pretreatment", "result": "significantly decreased"},
      {"measurement": "ketamine-induced recognition memory impairment in NORT", "setting": "Male ICR mice [2]", "result": "significantly attenuated"},
      {"measurement": "ketamine-induced motor in coordination", "setting": "Male ICR mice [3]", "result": "significantly reduced"},
      {"measurement": "duration of ketamine-induced loss of righting reflex", "setting": "Male ICR mice [4]", "result": "did not affect"},
      {"measurement": "onset of ketamine-induced loss of righting reflex", "setting": "Male ICR mice [4]", "result": "did not affect"},
      {"measurement": "ketamine-induced locomotor hyperactivity", "setting": "Male ICR mice [5]", "result": "reduced"},
      {"measurement": "duration of immobility in FST compared with ketamine (10 mg/kg) alone", "setting": "Male ICR mice [6]", "result": "significantly shorter duration of immobility"},
      {"measurement": "ketamine-induced disruption of PPI", "setting": "Male ICR mice [7]", "result": "significantly attenuated"},
      {"measurement": "duration of immobility in FST", "setting": "Male ICR mice [8]; DMG 10, 20 and 30 mg/kg alone", "result": "significantly decreased"},
      {"measurement": "duration of immobility in FST", "setting": "Male ICR mice [8]; DMG 10, 20 and 30 mg/kg pretreatment prior to ketamine 10 mg/kg", "result": "significantly decreased"}
    ]}
  ]
}
